Laboratory results published in patent US8519007B2, “Use certain diterpene compounds in the treatment of androgen receptor-associated diseases” (Academia Sinica, priority 2008, dated 2013).
Read-outs that look alike come from different tables or passages of the source.

Key:
LNCaP cells [1] = experiment: Western blot of G1-associated cyclins, CDKs, CDK inhibitors and Rb phosphorylation; type: cell-based, human; conditions: 24 h
From the text: (§1) The molecular mechanisms for HDHS-induced G0-G1 cell cycle arrest were further assessed by the expression of the cyclins and CDKs that operate in the G1 phase in PCa cells (Malumbres M et al., Nat Rev Cancer 2001; 1:222-31; Massague J. Nature 2004; 432:298-306).

PC-3 cells [2] = experiment: as above; type: cell-based, human; conditions: PC-3, compared with LNCaP
From the text: as §1

[3] = HDHS levels in plasma and tumors of treated nude mice (HPLC); type: in vivo; conditions: 24 h after the last of 24 doses; for concentration at 24 h after the last dose: athymic (nu/nu) nude, mouse, in vivo, read-out: HDHS level in plasma
Description: 22Rv1 cells were derived from a castration-relapsed tumor of human PCa origin that represents a clinical limitation for hormonal therapy (Nagabhushan M, et al., Cancer Res 1996;56:3042-6; Sramkoski R M, et al., In Vitro Cell Dev Biol Anim 1999; 35:403-9). The potential of HDHS to inhibit growth of PCa in vivo was tested in athymic nude mice with 22Rv1 tumors. […]. All animal work was done in accordance with the protocol approved by the Institutional Animal Care and Use Committee, Academia Sinica. Aliquots of 1×10^6 22Rv1 cells were suspended in 1:1 PBS mixed with Matrigel (BD Biosciences, San Jose, Calif.) and were subcutaneously inoculated into the right flank of each mouse. Once the tumor grew to palpable size one week after 22Rv1 cells were implanted, mice were stochastically assigned to three groups (n=7) that received vehicle control or HDHS at different dosages (0.5 and 2.5 mg/kg/day), by gavage in 0.2 mL of PBS containing 10% DMSO. Tumors were measured twice per week using calipers and their volumes calculated using a standard formula, as follows: width2×length×0.5. Body weight was measured weekly. Mice received 24 doses, and 24 h after the last dose they were sacrificed to harvest plasma and tumors. A portion of each tumor was snap-frozen in liquid nitrogen and stored at −80° C. until needed for western blot analysis of relevant biomarkers, and the remainder was fixed in 10% formalin overnight.
In order to further understand the dose-effect relationships, the attainable levels of HDHS in plasma and tumors were detected 24 h after the last dose of HDHS regimen in the tested mice. […]. These increases of HDHS concentrations in plasma and tumors were dose-dependent and consistent with the extent of tumor suppression (FIGS. 6A and B).

NIH-3T3 cells = experiment: MTT cell viability; type: cell-based; conditions: NIH-3T3, concentrations above 10 μM, 48 h, versus LNCaP and 22Rv1
Description: (§2) The effects of HDHS on cell viability in various PCa cell lines including androgen-dependent LNCaP, androgen-responsive 22Rv1 cells, and androgen-independent PC-3 cells were tested and compared with untransformed fibroblast NIH-3T3 cells. PCa or NIH-3T3 cells (1×10^4 cells) were seeded into 96-well microtiter plates with 10% FBS culture medium. After 24 h, cells were incubated in 10% FBS medium containing different concentrations of HDHS or equivalent amounts of vehicle alone as control for 48 h. Cell viability was then determined by MTT assay, which quantitatively measures the metabolic activity of living cells.

androgen receptor = target: T1, androgen receptor (Homo sapiens, UniProt P10275); experiment: PSA promoter luciferase reporter assay in 103E cells (AR transcriptional activity)
T1 sequence (P10275 with tags, fused parts or gaps DUP590-628/H875Y): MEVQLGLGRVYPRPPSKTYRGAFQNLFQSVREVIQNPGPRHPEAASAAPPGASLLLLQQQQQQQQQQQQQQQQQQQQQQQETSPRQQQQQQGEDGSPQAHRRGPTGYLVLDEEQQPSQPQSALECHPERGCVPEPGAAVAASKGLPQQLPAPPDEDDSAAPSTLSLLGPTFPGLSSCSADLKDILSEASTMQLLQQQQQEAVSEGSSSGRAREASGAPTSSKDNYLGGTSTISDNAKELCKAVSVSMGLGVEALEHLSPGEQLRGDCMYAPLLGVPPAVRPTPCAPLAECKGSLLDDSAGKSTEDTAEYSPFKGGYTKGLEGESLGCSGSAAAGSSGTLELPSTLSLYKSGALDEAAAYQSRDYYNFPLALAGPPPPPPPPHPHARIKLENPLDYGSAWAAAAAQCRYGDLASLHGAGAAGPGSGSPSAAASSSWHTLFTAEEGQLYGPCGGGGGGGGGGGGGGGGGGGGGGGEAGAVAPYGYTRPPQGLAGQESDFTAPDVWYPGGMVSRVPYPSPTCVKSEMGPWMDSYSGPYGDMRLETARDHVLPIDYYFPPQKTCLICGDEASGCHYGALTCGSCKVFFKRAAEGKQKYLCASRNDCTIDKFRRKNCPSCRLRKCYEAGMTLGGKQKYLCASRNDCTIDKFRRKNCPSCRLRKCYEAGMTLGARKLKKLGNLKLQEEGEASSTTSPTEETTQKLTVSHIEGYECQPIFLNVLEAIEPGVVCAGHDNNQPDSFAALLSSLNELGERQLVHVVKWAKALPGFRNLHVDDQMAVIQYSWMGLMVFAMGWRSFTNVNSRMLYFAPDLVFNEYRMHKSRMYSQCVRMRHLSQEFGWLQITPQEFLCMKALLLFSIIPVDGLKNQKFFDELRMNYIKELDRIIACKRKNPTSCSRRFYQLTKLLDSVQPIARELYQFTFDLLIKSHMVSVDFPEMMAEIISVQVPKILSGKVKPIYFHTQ
Description: PC-3 and NIH-3T3 were cultured in DMEM (Hyclone) supplemented with 10% FBS. Cultures were maintained in a humidified incubator at 37° C. in 5% CO2/air.
Cells were treated with various compounds for a period of 20 h and luciferase activity was measured using a luciferase reporter gene assay system (Promega).

PC-3 cells [4] = experiment: Cell cycle distribution by propidium iodide flow cytometry; type: cell-based, human; conditions: 48 h
Description: The cell cycle of treated cells was examined by flow cytometry after cellular staining with propidium iodide. 5×10^5 cells were seeded into 6-well multidishes with 10% FBS culture medium for 48 h. […] Cells were trypsinized thereafter, washed twice with cold PBS, and centrifuged. The pellet was suspended in cold PBS and 1 mL of 70% ethanol at 4° C. overnight, washed twice with cold PBS, and digested with RNase (100 μg/mL final concentration) and stained with propidium iodide (10 μg/mL final concentration) for 30 min and analyzed by flow cytometry (EPICS XL-MCL, Beckman Coulter, Inc., Fullerton, Calif.).

LNCaP cells [5] = experiment: Morphology of treated cells; conditions: 10 to 50 μM, 48 h
From the text: The long-term effect of HDHS on the malignant growth of AR-dependent (22Rv1, and LNCaP) and AR-independent (PC-3) PCa cells was examined by colony-forming growth assay.

22Rv1 cells = experiment: MTT cell viability; type: cell-based, human; conditions: 22Rv1, concentrations above 10 μM, 48 h
Description: as §2

LNCaP cells [6] = experiment: MTT cell viability; type: cell-based, human; conditions: concentrations above 10 μM, 48 h
Description: as §2

PC-3 cells [7] = experiment: MTT cell viability; type: cell-based, human; conditions: PC-3, concentrations above 10 μM, 48 h, versus LNCaP and 22Rv1
Description: as §2

CC(C)c1cc2c(cc1O)[C@@]1(C)CCCC(C)(C)C1=C(O)C2=O [Compound 2, 6,12-dihydroxyabieta-5,8,11,13-tetraen-7-one]
protein expression of CDK inhibitors p21 and p27 (LNCaP cells [1]; 10 μM): increased | cyclins D1 and E protein (LNCaP cells [1]): concentration-dependent decrease | phosphorylation of Rb (LNCaP cells [1]): markedly decreased | protein levels of CDK4, CDK6, and CDK2 (LNCaP cells [1]): decreased | changes in cyclins, CDKs, p21, p27 and Rb phosphorylation (PC-3 cells [2]): at a lower magnitude than in LNCaP cells | concentration at 24 h after the last dose ([3]; oral 0.5 mg/kg): 450 ± 140 nM | concentration at 24 h after the last dose ([3]; oral 2.5 mg/kg): 1450 ± 300 nM | HDHS level in tumor tissues ([3]; oral 0.5 mg/kg): 98.45 ± 19.80 nmol/g | HDHS level in tumor tissues ([3]; oral 2.5 mg/kg): 154.93 ± 12.97 nmol/g | cell viability (MTT) (NIH-3T3 cells): far less pronounced | concentration achieving complete inhibition of PSA promoter activity (androgen receptor; 10 nmol/L DHT, 24 h): greater than 10 μM | Inhibitionmax (%) of AR activity (androgen receptor; maximal inhibition at 10 μM): 101 ± 4% (10 μM) | IC50 (androgen receptor; read-out: IC50 for inhibiting DHT-induced PSA-luciferase reporter, cotreated with 10 nmol/L DHT, 24 h): 4.8 µM | G0-G1 phase cell population (PC-3 cells [4]; PC-3, 2.5 μM): 52.7 ± 2.0 % | G2-M phase cell population (PC-3 cells [4]; PC-3, 2.5 μM): 24.9 ± 2.7 % | S phase cell population (PC-3 cells [4]; PC-3, 2.5 μM): 19.2 ± 1.0 % | Sub-G1 phase cell population (PC-3 cells [4]; PC-3, 2.5 μM): 2.3 ± 0.7 % | G0-G1 phase cell population (PC-3 cells [4]; PC-3, 5 μM): 55.9 ± 2.9 % | G2-M phase cell population (PC-3 cells [4]; PC-3, 5 μM): 19.5 ± 2.9 % | S phase cell population (PC-3 cells [4]; PC-3, 5 μM): 18.8 ± 1.1 % | Sub-G1 phase cell population (PC-3 cells [4]; PC-3, 5 μM): 2.8 ± 0.9 % | G0-G1 phase cell population (PC-3 cells [4]; PC-3, 10 μM): 58.2 ± 2.8 % | G2-M phase cell population (PC-3 cells [4]; PC-3, 10 μM): 19.2 ± 3.2 % | S phase cell population (PC-3 cells [4]; PC-3, 10 μM): 18.0 ± 1.9 % | Sub-G1 phase cell population (PC-3 cells [4]; PC-3, 10 μM): 2.1 ± 0.6 % | morphology of treated cells (LNCaP cells [5]): cell rounding and surface blebbing | cell viability (MTT) (22Rv1 cells): strongly reduced cell viability | cell viability (MTT) (LNCaP cells [6]): strongly reduced cell viability | cell viability (MTT) (PC-3 cells [7]): far less pronounced
